PubChem BioAssay (NCI)
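Cultured in 96-well plates, cells were exposed to test compound for 48 hours across five concentrations. At the TGI there is no net growth.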

Legend:
Test in all cases: NCI anticancer screen, dose series, 48 h
K-562 leukemia = system: K-562 leukemia
MCF7 breast = system: MCF7 breast
SR leukemia = system: SR leukemia
OVCAR-4 ovarian = system: OVCAR-4 ovarian
NCI-H23 lung = system: NCI-H23 lung
NCI-H522 lung = system: NCI-H522 lung
MDA-MB-231 breast = system: MDA-MB-231 breast
COLO 205 colon = system: COLO 205 colon
HOP-92 NSCLC = system: HOP-92 NSCLC
SF-268 CNS = system: SF-268 CNS
HL-60(TB) leukemia = system: HL-60(TB) leukemia
BT-549 breast = system: BT-549 breast
HCT-116 colon = system: HCT-116 colon
M14 melanoma = system: M14 melanoma
NCI-H460 lung = system: NCI-H460 lung
SW-620 colon = system: SW-620 colon
SK-MEL-2 melanoma = system: SK-MEL-2 melanoma
U251 CNS = system: U251 CNS
SK-OV-3 ovarian = system: SK-OV-3 ovarian
SF-295 CNS = system: SF-295 CNS
UACC-62 melanoma = system: UACC-62 melanoma
RPMI-8226 leukemia = system: RPMI-8226 leukemia
RXF 393 renal = system: RXF 393 renal
PC-3 prostate = system: PC-3 prostate
ACHN renal = system: ACHN renal
MALME-3M melanoma = system: MALME-3M melanoma
OVCAR-8 ovarian = system: OVCAR-8 ovarian
DU-145 prostate = system: DU-145 prostate
EKVX NSCLC = system: EKVX NSCLC
HOP-62 NSCLC = system: HOP-62 NSCLC
SN12C renal = system: SN12C renal
CAKI-1 renal = system: CAKI-1 renal
KM12 colon = system: KM12 colon
MDA-N = system: MDA-N
NCI-H226 lung = system: NCI-H226 lung
TK-10 renal = system: TK-10 renal
HS 578T breast = system: HS 578T breast
SK-MEL-5 melanoma = system: SK-MEL-5 melanoma
UACC-257 melanoma = system: UACC-257 melanoma
786-0 renal = system: 786-0 renal
MOLT-4 leukemia = system: MOLT-4 leukemia
A549 NSCLC = system: A549 NSCLC
SF-539 CNS = system: SF-539 CNS
OVCAR-3 ovarian = system: OVCAR-3 ovarian
HCT-15 colon = system: HCT-15 colon
SNB-75 CNS = system: SNB-75 CNS
SNB-19 CNS = system: SNB-19 CNS
MDA-MB-435 = system: MDA-MB-435
UO-31 renal = system: UO-31 renal
HCC-2998 colon = system: HCC-2998 colon
SK-MEL-28 melanoma = system: SK-MEL-28 melanoma
A498 renal = system: A498 renal
T-47D breast = system: T-47D breast
CCRF-CEM leukemia = system: CCRF-CEM leukemia
OVCAR-5 ovarian = system: OVCAR-5 ovarian
IGROV1 ovarian = system: IGROV1 ovarian
NCI/ADR-RES ovarian = system: NCI/ADR-RES ovarian
HT29 colon = system: HT29 colon
LOX IMVI melanoma = system: LOX IMVI melanoma

In the case of `N=N/C(=C\c1c(O)[nH]c2ccccc12)c1ccccc1`, the TGI (K-562 leukemia) is reported as over 100 µM, the TGI (MCF7 breast) is reported as over 100 µM and the TGI (SR leukemia) is reported as 97.5 µM. For the same molecule, the TGI (OVCAR-4 ovarian) was over 100 µM, the TGI (NCI-H23 lung) was over 87.8 µM and the TGI (NCI-H522 lung) was 86.7 µM. It also gave a TGI (MDA-MB-231 breast) of over 76.5 µM, a TGI (COLO 205 colon) of 54.6 µM and a TGI (HOP-92 NSCLC) of over 100 µM. The TGI (SF-268 CNS) was over 100 µM, the TGI (HL-60(TB) leukemia) was 17.5 µM and the TGI (BT-549 breast) was 62.3 µM. For the same molecule, the TGI (HCT-116 colon) was over 59.3 µM, the TGI (M14 melanoma) was over 65.9 µM and the TGI (NCI-H460 lung) was over 100 µM. It also gave a TGI (SW-620 colon) of over 100 µM, a TGI (SK-MEL-2 melanoma) of over 100 µM and a TGI (U251 CNS) of over 83.9 µM. It also gave a TGI (SK-OV-3 ovarian) of over 90.2 µM, a TGI (SF-295 CNS) of 66 µM and a TGI (UACC-62 melanoma) of over 100 µM. The TGI (RPMI-8226 leukemia) was over 100 µM, the TGI (RXF 393 renal) was 62.6 µM and the TGI (PC-3 prostate) was over 70.7 µM. For the same molecule, the TGI (ACHN renal) was over 100 µM, the TGI (MALME-3M melanoma) was over 78 µM and the TGI (OVCAR-8 ovarian) was over 57.5 µM. It also gave a TGI (DU-145 prostate) of over 100 µM, a TGI (EKVX NSCLC) of over 92 µM and a TGI (HOP-62 NSCLC) of 99.8 µM. It also gave a TGI (SN12C renal) of over 94.7 µM, a TGI (CAKI-1 renal) of over 100 µM and a TGI (KM12 colon) of over 89.2 µM. It also gave a TGI (MDA-N) of 13.7 µM, a TGI (NCI-H226 lung) of 99.1 µM and a TGI (TK-10 renal) of over 100 µM. For the same molecule, the TGI (HS 578T breast) was 44.4 µM, the TGI (SK-MEL-5 melanoma) was over 100 µM and the TGI (UACC-257 melanoma) was over 100 µM. The TGI (786-0 renal) was over 77 µM, the TGI (MOLT-4 leukemia) was over 100 µM and the TGI (A549 NSCLC) was over 100 µM. It also gave a TGI (SF-539 CNS) of 37.9 µM, a TGI (OVCAR-3 ovarian) of 44.2 µM and a TGI (HCT-15 colon) of over 66.4 µM. It also gave a TGI (SNB-75 CNS) of 63.8 µM, a TGI (SNB-19 CNS) of over 92.9 µM and a TGI (MDA-MB-435) of 20.3 µM. The TGI (UO-31 renal) was over 100 µM, the TGI (HCC-2998 colon) was 63 µM and the TGI (SK-MEL-28 melanoma) was over 100 µM. The TGI (A498 renal) was 91.6 µM, the TGI (T-47D breast) was over 100 µM and the TGI (CCRF-CEM leukemia) was 25.2 µM. It also gave a TGI (OVCAR-5 ovarian) of over 100 µM, a TGI (IGROV1 ovarian) of over 100 µM and a TGI (NCI/ADR-RES ovarian) of over 57.2 µM. It also gave a TGI (HT29 colon) of 44.9 µM and a TGI (LOX IMVI melanoma) of over 70.2 µM.
`C#C/C=C\CCCCCCCCCCCCCC/C=C\CCCCC#CC(O)C#CCCCC/C=C\CCCCCC/C=C/C(O)C#C` (configuration not stated) was tested, and the TGI (K-562 leukemia) was over 75 µM, the TGI (MCF7 breast) was over 40.2 µM and the TGI (SR leukemia) was over 60.8 µM. For the same molecule, the TGI (OVCAR-4 ovarian) was 26.4 µM, the TGI (NCI-H23 lung) was over 42.6 µM and the TGI (NCI-H522 lung) was over 16 µM. It also gave a TGI (MDA-MB-231 breast) of over 75 µM, a TGI (COLO 205 colon) of 35.6 µM and a TGI (HOP-92 NSCLC) of 36.8 µM. For the same molecule, the TGI (SF-268 CNS) was 44.4 µM, the TGI (HL-60(TB) leukemia) was 43.6 µM and the TGI (BT-549 breast) was over 75 µM. The TGI (HCT-116 colon) was over 32.8 µM, the TGI (M14 melanoma) was over 38.3 µM and the TGI (NCI-H460 lung) was over 75 µM. The TGI (SW-620 colon) was over 52.9 µM, the TGI (SK-MEL-2 melanoma) was 37.1 µM and the TGI (U251 CNS) was over 75 µM. The TGI (SK-OV-3 ovarian) was over 75 µM, the TGI (SF-295 CNS) was over 55.6 µM and the TGI (UACC-62 melanoma) was 36.8 µM. The TGI (RXF 393 renal) was 41.4 µM, the TGI (PC-3 prostate) was over 57.7 µM and the TGI (ACHN renal) was over 75 µM. The TGI (MALME-3M melanoma) was 33.8 µM, the TGI (OVCAR-8 ovarian) was over 59.5 µM and the TGI (DU-145 prostate) was over 75 µM. For the same molecule, the TGI (EKVX NSCLC) was 35.9 µM, the TGI (HOP-62 NSCLC) was over 75 µM and the TGI (SN12C renal) was over 75 µM. The TGI (CAKI-1 renal) was 18.1 µM, the TGI (KM12 colon) was 20.1 µM and the TGI (MDA-N) was 24.2 µM. It also gave a TGI (NCI-H226 lung) of over 59.4 µM, a TGI (TK-10 renal) of over 49 µM and a TGI (HS 578T breast) of over 75 µM. For the same molecule, the TGI (SK-MEL-5 melanoma) was 17.6 µM, the TGI (UACC-257 melanoma) was over 63.4 µM and the TGI (786-0 renal) was 26.7 µM. For the same molecule, the TGI (MOLT-4 leukemia) was over 68 µM, the TGI (A549 NSCLC) was 37.1 µM and the TGI (SF-539 CNS) was over 75 µM. It also gave a TGI (OVCAR-3 ovarian) of over 55.1 µM, a TGI (HCT-15 colon) of over 62.3 µM and a TGI (SNB-75 CNS) of over 75 µM. It also gave a TGI (SNB-19 CNS) of over 75 µM, a TGI (MDA-MB-435) of 17.2 µM and a TGI (UO-31 renal) of 37.4 µM. For the same molecule, the TGI (HCC-2998 colon) was 37 µM, the TGI (SK-MEL-28 melanoma) was over 72 µM and the TGI (A498 renal) was 74.4 µM. The TGI (T-47D breast) was 26 µM, the TGI (CCRF-CEM leukemia) was over 47.5 µM and the TGI (OVCAR-5 ovarian) was over 75 µM. It also gave a TGI (IGROV1 ovarian) of 31 µM, a TGI (NCI/ADR-RES ovarian) of over 75 µM and a TGI (HT29 colon) of over 48.8 µM. The TGI (LOX IMVI melanoma) was 8.75 µM.
